Assay results as given in patent US10227336B2, “Pyrazole orexin receptor antagonists” (MERCK SHARP & DOHME CORP., priority 2014, dated 2019).

Tests used:
human orexin-2 receptor = human orexin-2 receptor (Homo sapiens (Human), UniProt O43614); assay: FLIPR Ca2+ Flux Assay, hOX2R; format: cell-based; details: CHO cells expressing the human orexin-2 receptor; agonist 70 pM Ala-6,12 orexin-A
Description: The utility of the compounds in accordance with the present invention as orexin receptor OX1R and/or OX2R antagonists may be readily determined without undue experimentation by methodology well known in the art, including the “FLIPR Ca^2+ Flux Assay” (Okumura et al., Biochem. Biophys. Res. Comm. 280:976-981, 2001). In a typical experiment the OX1 and OX2 receptor antagonistic activity of the compounds of the present invention was determined in accordance with the following experimental method. For intracellular calcium measurements, Chinese hamster ovary (CHO) cells expressing the rat orexin-1 receptor or the human orexin-2 receptor, are grown in Iscove's modified DMEM containing 2 mM L-glutamine, […], 1% hypoxanthine-thymidine supplement, 100 U/ml penicillin, 100 μg/ml streptomycin and 10% heat-inactivated fetal calf serum (FCS). The cells are seeded at 20,000 cells/well into Becton-Dickinson black 384-well clear bottom sterile plates coated with poly-D-lysine. All reagents were from GIBCO-Invitrogen Corp. The seeded plates are incubated overnight at 37° C. and 5% CO2. Ala-6,12 human orexin-A as the agonist is prepared as a 1 mM stock solution in 1% bovine serum albumin (BSA) and diluted in assay buffer (HBSS containing 20 mM HEPES, 0.1% BSA and 2.5 mM probenecid, pH7.4) for use in the assay at a final concentration of 70 pM. Test compounds are prepared as 10 mM stock solution in DMSO, then diluted in 384-well plates, first in DMSO, then assay buffer. On the day of the assay, cells are washed 3 times with 100 μl assay buffer and then incubated for 60 min (37° C., 5% CO2) in 60 μl assay buffer containing 1 μM Fluo-4AM ester, 0.02% pluronic acid, and 1% BSA. The dye loading solution is then aspirated and cells are washed 3 times with 100 μl assay buffer. 30 μl of that same buffer is left in each well. Within the Fluorescent Imaging Plate Reader (FLIPR, Molecular Devices), test compounds are added to the plate in a volume of 25 μl, incubated for 5 min and finally 25 μl of agonist is added. Fluorescence is measured for each well at 1 second intervals for 5 minutes and the height of each fluorescence peak is compared to the height of the fluorescence peak induced by 70 pM Ala-6,12 orexin-A with buffer in place of antagonist. For each antagonist, IC50 value (the concentration of compound needed to inhibit 50% of the agonist response) is determined. Alternatively, compound potency can be assessed by a radioligand binding assay (described in Bergman et. al. Bioorg. Med. Chem. Lett. 2008, 18, 1425-1430) in which the inhibition constant (Ki) is determined in membranes prepared from CHO cells expressing either the OX1 or OX2 receptor. The intrinsic orexin receptor antagonist activity of a compound which may be used in the present invention may be determined by these assays.

hOX1R = hOX1R (Homo sapiens, UniProt O43613); assay: FLIPR Ca2+ Flux Assay, hOX1R; format: cell-based; details: CHO cells expressing orexin-1 receptor (head: hOX1R; method: rat); agonist 70 pM Ala-6,12 orexin-A
Description: The utility of the compounds in accordance with the present invention as orexin receptor OX1R and/or OX2R antagonists may be readily determined without undue experimentation by methodology well known in the art, including the “FLIPR Ca^2+ Flux Assay” (Okumura et al., Biochem. Biophys. Res. Comm. 280:976-981, 2001). In a typical experiment the OX1 and OX2 receptor antagonistic activity of the compounds of the present invention was determined in accordance with the following experimental method. […] The cells are seeded at 20,000 cells/well into Becton-Dickinson black 384-well clear bottom sterile plates coated with poly-D-lysine. All reagents were from GIBCO-Invitrogen Corp. The seeded plates are incubated overnight at 37° C. and 5% CO2. Ala-6,12 human orexin-A as the agonist is prepared as a 1 mM stock solution in 1% bovine serum albumin (BSA) and diluted in assay buffer (HBSS containing 20 mM HEPES, 0.1% BSA and 2.5 mM probenecid, pH7.4) for use in the assay at a final concentration of 70 pM. Test compounds are prepared as 10 mM stock solution in DMSO, then diluted in 384-well plates, first in DMSO, then assay buffer. On the day of the assay, cells are washed 3 times with 100 μl assay buffer and then incubated for 60 min (37° C., 5% CO2) in 60 μl assay buffer containing 1 μM Fluo-4AM ester, 0.02% pluronic acid, and 1% BSA. The dye loading solution is then aspirated and cells are washed 3 times with 100 μl assay buffer. 30 μl of that same buffer is left in each well. Within the Fluorescent Imaging Plate Reader (FLIPR, Molecular Devices), test compounds are added to the plate in a volume of 25 μl, incubated for 5 min and finally 25 μl of agonist is added. Fluorescence is measured for each well at 1 second intervals for 5 minutes and the height of each fluorescence peak is compared to the height of the fluorescence peak induced by 70 pM Ala-6,12 orexin-A with buffer in place of antagonist. For each antagonist, IC50 value (the concentration of compound needed to inhibit 50% of the agonist response) is determined. Alternatively, compound potency can be assessed by a radioligand binding assay (described in Bergman et. al. Bioorg. Med. Chem. Lett. 2008, 18, 1425-1430) in which the inhibition constant (Ki) is determined in membranes prepared from CHO cells expressing either the OX1 or OX2 receptor. The intrinsic orexin receptor antagonist activity of a compound which may be used in the present invention may be determined by these assays.

Sequence of human orexin-2 receptor (O43614 whole entry): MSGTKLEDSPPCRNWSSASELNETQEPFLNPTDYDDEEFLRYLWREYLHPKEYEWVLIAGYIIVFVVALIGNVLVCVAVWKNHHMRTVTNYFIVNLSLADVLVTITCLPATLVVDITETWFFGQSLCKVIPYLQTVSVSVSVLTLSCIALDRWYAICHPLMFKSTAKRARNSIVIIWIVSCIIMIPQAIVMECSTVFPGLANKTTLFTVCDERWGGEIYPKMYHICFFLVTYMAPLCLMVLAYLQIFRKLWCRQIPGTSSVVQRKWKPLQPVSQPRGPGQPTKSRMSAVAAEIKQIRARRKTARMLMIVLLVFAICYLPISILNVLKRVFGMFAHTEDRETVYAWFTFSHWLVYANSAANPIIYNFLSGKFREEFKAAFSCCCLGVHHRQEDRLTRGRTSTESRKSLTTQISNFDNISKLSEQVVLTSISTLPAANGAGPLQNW

| Structure (SMILES) | IC50 (human orexin-2 receptor) | IC50 (hOX1R) |
| --- | --- | --- |
| CCn1cc([C@@H]2CC[C@@H](C)N(C(=O)c3ccccc3-n3nccn3)C2)cn1 [Example 1, (2R,5S)-5-(1-Ethyl-1H-pyrazol-4-yl)-2-methyl-1-{[2-(2H-1,2,3-triazol-2-yl)phenyl]carbonyl}piperidine] | 139 nM | > 10000 nM |
| CC(C)n1cc([C@@H]2CC[C@@H](C)N(C(=O)c3ccccc3-n3nccn3)C2)cn1 [Example 2, (2R,5S)-2-methyl-5-[1-(1-methylethyl)-1H-pyrazol-4-yl]-1-1{[2-(2H-1,2,3-triazol-2-yl)phenyl]carbonyl}piperidine] | 34 nM | 3410 nM |
| C[C@@H]1CC[C@@H](c2cnn(CC3CC3)c2)CN1C(=O)c1ccccc1-n1nccn1 [Example 3, (2R,5S)-5-[1-(cyclopropylmethyl)-1H-pyrazol-4-yl]-2-methyl-1-{[2-(2H-1,2,3-triazol-2-yl)phenyl]carbonyl}piperidine] | 124 nM | 7710 nM |
| C[C@@H]1CC[C@@H](c2cnn(C3CCCC3)c2)CN1C(=O)c1ccccc1-n1nccn1 [Example 4, (2R,5S)-5-(1-cyclopentyl-1H-pyrazol-4-yl)-2-methyl-1-{[2-(2H-1,2,3-triazol-2-yl)phenyl]carbonyl}piperidine] | 39 nM | 1430 nM |
| C[C@@H]1CC[C@@H](c2cnn(CC(F)(F)F)c2)CN1C(=O)c1ccccc1-n1nccn1 [Example 5, (2R,5S)-2-methyl-1-{[2-(2H-1,2,3-triazol-2-yl)phenyl]carbonyl}-5-[1-(2,2,2-trifluoroethyl)-1H-pyrazol-4-yl]piperidine] | 75 nM | > 10000 nM |
| C[C@@H]1CC[C@@H](c2cnn(CC(F)F)c2)CN1C(=O)c1ccccc1-n1nccn1 [Example 6, (2R,5S)-5-[1-(2,2-difluoroethyl)-1H-pyrazol-4-yl]-2-methyl-1-{[2-(2H-1,2,3-triazol-2-yl)phenyl]carbonyl}piperidine] | 183 nM | > 10000 nM |
| COC(=O)C(C)(C)n1cc([C@@H]2CC[C@@H](C)N(C(=O)c3ccccc3-n3nccn3)C2)cn1 [Example 7, methyl 2-methyl-2-{4-[(3S,6R)-6-methyl-1-{[2-(2H-1,2,3-triazol-2-yl)phenyl]carbonyl}piperidin-3-yl]-1H-pyrazol-1-yl}propanoate] | 46 nM | 3050 nM |
| C[C@@H]1CC[C@@H](c2cnn(C3CCC3)c2)CN1C(=O)c1ccccc1-n1nccn1 [Example 8, (2R,5S)-5-(1-cyclobutyl-1H-pyrazol-4-yl)-2-methyl-1-{[2-(2H-1,2,3-triazol-2-yl)phenyl]carbonyl}piperidine] | 49 nM | 3440 nM |
| C[C@@H]1CC[C@@H](c2cnn(C3CCOC3)c2)CN1C(=O)c1ccccc1-n1nccn1 (stereo partly drawn) [Example 9, (2R,5S)-2-methyl-5-[1-(tetrahydrofuran-3-yl)-1H-pyrazol-4-yl]-1-{[2-(2H-1,2,3-triazol-2-yl)phenyl]carbonyl}piperidine] | 600 nM | > 10000 nM |
| C[C@@H]1CC[C@@H](c2cnn(CC(C)(C)O)c2)CN1C(=O)c1ccccc1-n1nccn1 [Example 10, 2-Methyl-1-{4-[(3S,6R)-6-methyl-1-{[2-(2H-1,2,3-triazol-2-yl)phenyl]carbonyl}piperidin-3-yl]-1H-pyrazol-1-yl}propan-2-ol] | 197 nM | > 10000 nM |
| C[C@@H]1CC[C@@H](c2cnn(C3CC3)c2)CN1C(=O)c1ccccc1-n1nccn1 [Example 11, (2R,5S)-5-(1-Cyclopropyl-1H-pyrazol-4-yl)-2-methyl-1-{[2-(2H-1,2,3-triazol-2-yl)phenyl]carbonyl}piperidine] | 56 nM | > 10000 nM |
| CC(C)n1cc([C@@H]2CC[C@@H](C)N(C(=O)c3ccsc3-n3nccn3)C2)cn1 [Example 12, (2R,5S)-2-Methyl-5-[1-(1-methylethyl)-1H-pyrazol-4-yl]-1-{[2-(2H-1,2,3-triazol-2-yl)thiophen-3-yl]carbonyl}piperidine] | 301 nM | > 10000 nM |
| CC(C)n1cc([C@@H]2CC[C@@H](C)N(C(=O)c3ccsc3-c3ncccn3)C2)cn1 [Example 13, 2[3-({(2R,5S)-2-methy1-5-[1-(1-methylethyl)-1H-pyrazol-4-yl]piperidin-1-yl}carbonyl)thiophen-2-yl]pyrimidine] | 155 nM | > 10000 nM |
| CC(C)n1cc([C@@H]2CC[C@@H](C)N(C(=O)c3cscc3-n3nccn3)C2)cn1 [Example 14, (2R,5S)-2-methyl-5-[1-(1-methylethyl)-1H-pyrazol-4-yl]-1-{[4-(2H-1,2,3-triazol-2-yl)thiophen-3-yl]carbonyl}piperidine] | 430 nM | > 10000 nM |
| CC(C)n1cc([C@@H]2CC[C@@H](C)N(C(=O)c3ccc(F)cc3-n3nccn3)C2)cn1 [Example 15, (2R,5S)-1-{[4-fluoro-2-(2H-1,2,3-triazol-2-yl)phenyl]carbonyl}-2-methyl-5-[1-(1-methylethyl)-1H-pyrazol-4-yl]piperidine] | 113 nM | > 10000 nM |
| CC(C)n1cc([C@@H]2CC[C@@H](C)N(C(=O)c3ccccc3-n3ncnn3)C2)cn1 [Example 16, (2R,5S)-2-methyl-5-[1-(1-methylethyl)-1H-pyrazol-4-yl]-1-{[2-(2H-tetrazol-2-yl)phenyl]carbonyl}piperidine] | 259 nM | > 10000 nM |
